From ChEMBL document CHEMBL4507265 (2021)

What was measured:
[1] = molecular target: Serine/threonine-protein kinase DCLK2 (Homo sapiens) (UniProt Q8N568); settings: Compound concentration 1000.0 nM
[2] = test system: Tyrosine-protein kinase ABL1 (Homo sapiens), P00519 [F317L]; settings: Compound concentration 1000.0 nM
[3] = molecular target: Fibroblast growth factor receptor 1 (Homo sapiens) (UniProt P11362); settings: Compound concentration 1000.0 nM
[4] = molecular target: Beta-3 adrenergic receptor (Homo sapiens) (UniProt P13945); settings: Compound concentration 10.0 uM
[5] = molecular target: Tyrosine-protein kinase BTK (Homo sapiens) (UniProt Q06187); settings: Compound concentration 1000.0 nM
[6] = molecular target: Mitogen-activated protein kinase kinase kinase 1 (Homo sapiens) (UniProt Q13233); settings: Compound concentration 1000.0 nM
Sequence of Mitogen-activated protein kinase kinase kinase 1 (Homo sapiens) (Q13233 whole entry): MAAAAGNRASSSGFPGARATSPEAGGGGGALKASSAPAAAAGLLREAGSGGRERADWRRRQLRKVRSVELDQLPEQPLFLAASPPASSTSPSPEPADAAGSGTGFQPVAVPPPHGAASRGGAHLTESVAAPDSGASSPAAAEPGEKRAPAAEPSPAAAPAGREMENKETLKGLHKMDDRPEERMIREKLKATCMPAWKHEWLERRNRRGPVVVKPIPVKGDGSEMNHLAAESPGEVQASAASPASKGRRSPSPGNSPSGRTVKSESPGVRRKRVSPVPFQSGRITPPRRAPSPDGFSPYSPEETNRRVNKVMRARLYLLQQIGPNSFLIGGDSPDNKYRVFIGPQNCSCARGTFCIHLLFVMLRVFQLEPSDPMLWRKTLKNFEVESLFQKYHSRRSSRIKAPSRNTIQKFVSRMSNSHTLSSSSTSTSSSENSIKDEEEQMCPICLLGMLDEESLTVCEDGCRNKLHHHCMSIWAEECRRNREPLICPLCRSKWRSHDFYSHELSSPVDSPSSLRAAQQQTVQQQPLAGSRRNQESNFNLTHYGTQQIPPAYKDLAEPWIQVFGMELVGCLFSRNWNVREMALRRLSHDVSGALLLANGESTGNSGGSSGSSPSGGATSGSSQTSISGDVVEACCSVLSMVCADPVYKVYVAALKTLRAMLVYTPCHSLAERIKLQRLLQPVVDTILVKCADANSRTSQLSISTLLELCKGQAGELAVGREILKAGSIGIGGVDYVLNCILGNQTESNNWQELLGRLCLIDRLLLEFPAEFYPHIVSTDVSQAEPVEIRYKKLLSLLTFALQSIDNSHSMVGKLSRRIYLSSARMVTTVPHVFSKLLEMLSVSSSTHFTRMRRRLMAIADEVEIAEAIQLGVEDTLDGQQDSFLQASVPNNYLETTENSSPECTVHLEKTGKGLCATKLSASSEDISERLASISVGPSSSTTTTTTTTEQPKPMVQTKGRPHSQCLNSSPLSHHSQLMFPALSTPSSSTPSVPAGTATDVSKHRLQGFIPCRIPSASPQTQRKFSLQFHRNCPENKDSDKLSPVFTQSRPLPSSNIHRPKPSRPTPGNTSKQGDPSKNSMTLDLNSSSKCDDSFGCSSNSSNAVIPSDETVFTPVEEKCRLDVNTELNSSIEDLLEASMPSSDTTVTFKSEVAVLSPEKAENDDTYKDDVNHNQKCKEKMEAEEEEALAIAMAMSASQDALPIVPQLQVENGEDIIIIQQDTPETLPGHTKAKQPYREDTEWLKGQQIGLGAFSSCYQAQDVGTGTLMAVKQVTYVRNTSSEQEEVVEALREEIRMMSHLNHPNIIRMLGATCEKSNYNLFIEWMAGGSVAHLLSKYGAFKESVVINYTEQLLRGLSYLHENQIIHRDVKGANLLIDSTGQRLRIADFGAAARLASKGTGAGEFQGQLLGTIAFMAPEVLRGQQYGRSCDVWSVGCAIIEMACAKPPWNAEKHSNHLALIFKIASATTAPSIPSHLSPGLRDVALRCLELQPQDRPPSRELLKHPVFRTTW

[7] = test system: Tyrosine-protein kinase ABL1 (Homo sapiens), P00519 [Q252H]; settings: Compound concentration 1000.0 nM
[8] = molecular target: Cyclin-dependent kinase 15 (Homo sapiens) (UniProt Q96Q40); settings: Compound concentration 1000.0 nM
[9] = molecular target: Cyclin-dependent kinase 11A (Homo sapiens) (UniProt Q9UQ88); settings: Compound concentration 1000.0 nM
[10] = molecular target: Serine/threonine-protein kinase SIK3 (Homo sapiens) (UniProt Q9Y2K2); settings: Compound concentration 1000.0 nM
[11] = molecular target: Mitogen-activated protein kinase 15 (Homo sapiens) (UniProt Q8TD08); settings: Compound concentration 1000.0 nM
[12] = molecular target: cGMP-dependent protein kinase 1 (Homo sapiens) (UniProt Q13976); settings: Compound concentration 1000.0 nM
[13] = molecular target: Cyclin-dependent kinase-like 5 (Homo sapiens) (UniProt O76039); settings: Compound concentration 1000.0 nM
[14] = molecular target: Receptor tyrosine-protein kinase erbB-4 (Homo sapiens) (UniProt Q15303); settings: Compound concentration 1000.0 nM
[15] = molecular target: Ephrin type-A receptor 2 (Homo sapiens) (UniProt P29317); settings: Compound concentration 1000.0 nM
[16] = test system: Proto-oncogene tyrosine-protein kinase receptor Ret (Homo sapiens), P07949 [V804M]; settings: Compound concentration 1000.0 nM
[17] = molecular target: Serine/threonine-protein kinase PAK 5 (Homo sapiens) (UniProt Q9P286); settings: Compound concentration 1000.0 nM
[18] = molecular target: 3-phosphoinositide-dependent protein kinase 1 (Homo sapiens) (UniProt O15530); settings: Compound concentration 1000.0 nM
[19] = molecular target: Tyrosine-protein kinase JAK3 (Homo sapiens) (UniProt P52333); settings: Compound concentration 1000.0 nM
[20] = test system: Epidermal growth factor receptor (Homo sapiens), P00533 [T790M]; settings: Compound concentration 1000.0 nM
[21] = molecular target: Casein kinase I isoform alpha (Homo sapiens) (UniProt P48729); settings: Compound concentration 1000.0 nM
[22] = molecular target: Ribosomal protein S6 kinase alpha-2 (Homo sapiens) (UniProt Q15349); settings: Compound concentration 1000.0 nM
[23] = molecular target: 5-hydroxytryptamine receptor 7 (Homo sapiens) (UniProt P34969); settings: Compound concentration 10.0 uM
[24] = molecular target: Mitogen-activated protein kinase kinase kinase 7 (Homo sapiens) (UniProt O43318); settings: Compound concentration 1000.0 nM
Sequence of Mitogen-activated protein kinase kinase kinase 7 (Homo sapiens) (O43318 whole entry): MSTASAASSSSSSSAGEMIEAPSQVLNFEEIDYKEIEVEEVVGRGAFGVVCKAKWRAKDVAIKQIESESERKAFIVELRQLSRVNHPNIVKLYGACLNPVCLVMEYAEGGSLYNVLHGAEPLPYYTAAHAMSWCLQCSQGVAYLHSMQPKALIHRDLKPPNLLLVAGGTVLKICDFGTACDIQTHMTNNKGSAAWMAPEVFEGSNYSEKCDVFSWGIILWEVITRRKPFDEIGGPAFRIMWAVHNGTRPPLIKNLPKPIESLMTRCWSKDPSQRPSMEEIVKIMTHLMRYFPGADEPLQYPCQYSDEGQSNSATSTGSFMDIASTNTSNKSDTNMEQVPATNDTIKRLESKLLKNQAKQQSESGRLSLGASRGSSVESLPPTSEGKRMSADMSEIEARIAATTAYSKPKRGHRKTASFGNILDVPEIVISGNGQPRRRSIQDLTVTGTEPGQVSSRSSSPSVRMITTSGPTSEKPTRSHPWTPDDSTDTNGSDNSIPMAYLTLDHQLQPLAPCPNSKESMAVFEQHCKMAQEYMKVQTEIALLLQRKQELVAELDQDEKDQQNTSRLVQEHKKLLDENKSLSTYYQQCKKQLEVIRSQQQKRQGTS

[25] = molecular target: Ribosomal protein S6 kinase beta-1 (Homo sapiens) (UniProt P23443); settings: Compound concentration 1000.0 nM
[26] = molecular target: Myosin light chain kinase family member 4 (Homo sapiens) (UniProt Q86YV6); settings: Compound concentration 1000.0 nM
[27] = molecular target: Casein kinase I isoform delta (Homo sapiens) (UniProt P48730); settings: Compound concentration 1000.0 nM
[28] = molecular target: Microtubule-associated serine/threonine-protein kinase 1 (Homo sapiens) (UniProt Q9Y2H9); settings: Compound concentration 1000.0 nM
[29] = molecular target: Serine/threonine-protein kinase 38 (Homo sapiens) (UniProt Q15208); settings: Compound concentration 1000.0 nM
[30] = molecular target: Casein kinase II subunit alpha (Homo sapiens) (UniProt P68400); settings: Compound concentration 1000.0 nM
[31] = molecular target: Tyrosine-protein kinase receptor UFO (Homo sapiens) (UniProt P30530); settings: Compound concentration 1000.0 nM
[32] = molecular target: Serine/threonine-protein kinase mTOR (Homo sapiens) (UniProt P42345); settings: Compound concentration 1000.0 nM
[33] = molecular target: Hepatocyte growth factor receptor (Homo sapiens) (UniProt P08581); settings: Compound concentration 1000.0 nM
[34] = molecular target: Sigma intracellular receptor 2 (Homo sapiens, UniProt Q5BJF2); experiment: GPCRScan assay: inhibition of Sigma 2; set-up: radioligand conc. used [nm] 5.0, parental cells HEKT
Sequence of Sigma intracellular receptor 2 (Q5BJF2 whole entry): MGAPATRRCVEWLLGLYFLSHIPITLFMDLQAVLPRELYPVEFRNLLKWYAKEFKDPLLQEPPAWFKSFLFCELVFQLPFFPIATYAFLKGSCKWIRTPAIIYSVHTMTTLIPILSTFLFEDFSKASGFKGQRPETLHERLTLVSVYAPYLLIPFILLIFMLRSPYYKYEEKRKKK

[35] = molecular target: TGF-beta receptor type-2 (Homo sapiens) (UniProt P37173); settings: Compound concentration 1000.0 nM
Sequence of TGF-beta receptor type-2 (Homo sapiens) (P37173 whole entry): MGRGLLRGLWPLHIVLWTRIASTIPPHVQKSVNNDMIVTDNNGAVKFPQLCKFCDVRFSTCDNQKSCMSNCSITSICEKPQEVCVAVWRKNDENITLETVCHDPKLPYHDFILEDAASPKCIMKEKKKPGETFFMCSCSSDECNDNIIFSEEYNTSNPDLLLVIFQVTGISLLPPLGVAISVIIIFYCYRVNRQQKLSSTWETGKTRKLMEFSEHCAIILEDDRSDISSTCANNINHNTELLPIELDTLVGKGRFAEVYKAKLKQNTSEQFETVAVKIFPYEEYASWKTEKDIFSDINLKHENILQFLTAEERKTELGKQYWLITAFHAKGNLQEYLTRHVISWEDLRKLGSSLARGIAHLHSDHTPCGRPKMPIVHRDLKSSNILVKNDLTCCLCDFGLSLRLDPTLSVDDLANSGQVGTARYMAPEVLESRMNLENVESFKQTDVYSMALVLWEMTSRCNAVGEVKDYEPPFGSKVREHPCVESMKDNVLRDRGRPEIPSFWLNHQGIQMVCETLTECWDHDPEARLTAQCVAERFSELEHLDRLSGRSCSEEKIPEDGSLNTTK

[36] = molecular target: Serine/threonine-protein kinase RIO2 (Homo sapiens) (UniProt Q9BVS4); settings: Compound concentration 1000.0 nM
[37] = molecular target: Muscarinic acetylcholine receptor M4 (Homo sapiens) (UniProt P08173); settings: Compound concentration 10.0 uM
[38] = molecular target: Fibroblast growth factor receptor 4 (Homo sapiens) (UniProt P22455); settings: Compound concentration 1000.0 nM
[39] = molecular target: Serine/threonine-protein kinase 3 (Homo sapiens) (UniProt Q13188); settings: Compound concentration 1000.0 nM
[40] = test system: Tyrosine-protein kinase ABL1 (Homo sapiens), P00519 [F317L]; settings: Compound concentration 1000.0 nM; remark: listed apart in the source
[41] = molecular target: Sodium-dependent noradrenaline transporter (Homo sapiens) (UniProt P23975); settings: Compound concentration 10.0 uM
[42] = molecular target: Cyclin-dependent kinase 14 (Homo sapiens) (UniProt O94921); settings: Compound concentration 1000.0 nM
[43] = molecular target: Serine/threonine-protein kinase haspin (Homo sapiens) (UniProt Q8TF76); settings: Compound concentration 1000.0 nM
Sequence of Serine/threonine-protein kinase haspin (Homo sapiens) (Q8TF76 whole entry): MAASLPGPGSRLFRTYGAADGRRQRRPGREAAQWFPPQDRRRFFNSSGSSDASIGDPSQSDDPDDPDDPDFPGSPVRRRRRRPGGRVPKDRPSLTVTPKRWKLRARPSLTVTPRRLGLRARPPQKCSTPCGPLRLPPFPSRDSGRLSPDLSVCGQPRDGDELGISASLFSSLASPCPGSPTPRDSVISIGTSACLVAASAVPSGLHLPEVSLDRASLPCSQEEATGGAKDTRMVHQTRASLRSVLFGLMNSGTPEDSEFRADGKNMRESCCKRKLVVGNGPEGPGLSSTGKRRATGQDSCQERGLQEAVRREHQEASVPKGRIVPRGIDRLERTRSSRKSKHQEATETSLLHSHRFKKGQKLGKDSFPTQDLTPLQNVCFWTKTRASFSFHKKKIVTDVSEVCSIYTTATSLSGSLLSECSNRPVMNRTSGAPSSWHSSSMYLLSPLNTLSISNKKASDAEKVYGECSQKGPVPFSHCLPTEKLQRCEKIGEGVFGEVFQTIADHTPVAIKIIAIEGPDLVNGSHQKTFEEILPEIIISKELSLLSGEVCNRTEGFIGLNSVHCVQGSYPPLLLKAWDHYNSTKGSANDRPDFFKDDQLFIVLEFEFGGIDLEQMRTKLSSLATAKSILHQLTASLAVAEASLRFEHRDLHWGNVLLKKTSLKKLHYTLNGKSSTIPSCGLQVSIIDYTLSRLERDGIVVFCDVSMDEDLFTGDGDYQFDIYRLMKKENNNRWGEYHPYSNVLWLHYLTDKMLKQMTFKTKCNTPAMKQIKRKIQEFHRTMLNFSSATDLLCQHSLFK

[44] = molecular target: Platelet-derived growth factor receptor beta (Homo sapiens) (UniProt P09619); settings: Compound concentration 1000.0 nM
Sequence of Platelet-derived growth factor receptor beta (Homo sapiens) (P09619 whole entry): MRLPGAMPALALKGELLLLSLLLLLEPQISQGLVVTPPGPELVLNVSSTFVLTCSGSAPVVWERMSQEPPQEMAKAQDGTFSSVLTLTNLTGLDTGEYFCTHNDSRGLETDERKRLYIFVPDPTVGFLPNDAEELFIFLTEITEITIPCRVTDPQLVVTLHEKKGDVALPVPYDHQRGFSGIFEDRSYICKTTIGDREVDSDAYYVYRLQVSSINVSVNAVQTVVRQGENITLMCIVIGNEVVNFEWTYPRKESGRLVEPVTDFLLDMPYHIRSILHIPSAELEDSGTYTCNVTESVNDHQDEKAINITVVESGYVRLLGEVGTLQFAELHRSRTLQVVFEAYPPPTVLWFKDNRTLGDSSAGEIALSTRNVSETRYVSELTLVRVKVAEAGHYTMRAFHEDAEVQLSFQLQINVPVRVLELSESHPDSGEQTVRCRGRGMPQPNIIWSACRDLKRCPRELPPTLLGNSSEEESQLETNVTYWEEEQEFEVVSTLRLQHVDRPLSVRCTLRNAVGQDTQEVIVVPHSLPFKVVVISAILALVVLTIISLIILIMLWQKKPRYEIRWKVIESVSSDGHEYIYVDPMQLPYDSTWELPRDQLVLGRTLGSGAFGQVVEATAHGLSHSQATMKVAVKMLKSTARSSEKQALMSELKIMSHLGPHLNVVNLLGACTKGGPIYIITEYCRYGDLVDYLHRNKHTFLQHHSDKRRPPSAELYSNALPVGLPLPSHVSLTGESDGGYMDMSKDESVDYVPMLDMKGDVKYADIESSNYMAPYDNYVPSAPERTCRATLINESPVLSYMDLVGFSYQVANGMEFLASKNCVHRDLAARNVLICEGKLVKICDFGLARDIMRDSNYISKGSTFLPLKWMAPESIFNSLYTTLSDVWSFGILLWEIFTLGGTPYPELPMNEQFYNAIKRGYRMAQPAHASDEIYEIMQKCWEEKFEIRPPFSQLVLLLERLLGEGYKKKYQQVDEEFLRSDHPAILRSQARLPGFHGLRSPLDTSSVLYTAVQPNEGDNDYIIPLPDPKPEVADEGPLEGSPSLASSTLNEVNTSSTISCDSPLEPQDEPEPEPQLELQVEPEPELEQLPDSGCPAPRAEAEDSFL

[45] = molecular target: Histamine H4 receptor (Homo sapiens) (UniProt Q9H3N8); settings: Compound concentration 10.0 uM
[46] = molecular target: Cyclin-dependent kinase 5 (Homo sapiens) (UniProt Q00535); settings: Compound concentration 1000.0 nM
Sequence of Cyclin-dependent kinase 5 (Homo sapiens) (Q00535 whole entry, looked up): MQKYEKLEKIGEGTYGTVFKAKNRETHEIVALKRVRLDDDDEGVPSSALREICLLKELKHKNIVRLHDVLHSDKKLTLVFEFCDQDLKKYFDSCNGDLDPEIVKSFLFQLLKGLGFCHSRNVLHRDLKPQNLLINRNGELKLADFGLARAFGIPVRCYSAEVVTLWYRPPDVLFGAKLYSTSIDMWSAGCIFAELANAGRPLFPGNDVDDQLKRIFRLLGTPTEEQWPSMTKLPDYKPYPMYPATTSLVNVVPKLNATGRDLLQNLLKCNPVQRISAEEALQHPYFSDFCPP

## NS(=O)(=O)c1cc(NC(=O)C2(c3ccccc3Cl)CC2)ccc1Oc1cccc(Cl)c1 [BAY-207]
[1]
  residual activity: 74%
[2]
  residual activity: 88%
[3]
  residual activity: 100%
[4]
  inhibition: -5.77%
[5]
  residual activity: 88%
[6]
  residual activity: 100%
[7]
  residual activity: 71%
[8]
  residual activity: 98%
[9]
  residual activity: 73%
[10]
  residual activity: 87%
[11]
  residual activity: 65%
[12]
  residual activity: 91%
[13]
  residual activity: 95%
[14]
  residual activity: 75%
[15]
  residual activity: 80%
[16]
  residual activity: 100%
[17]
  residual activity: 100%
[18]
  residual activity: 85%
[19]
  residual activity: 64%
[20]
  residual activity: 100%
[21]
  residual activity: 100%
[22]
  residual activity: 91%
[23]
  inhibition: 17.3%
[24]
  residual activity: 98%
[25]
  residual activity: 81%
[26]
  residual activity: 94%
[27]
  residual activity: 83%
[28]
  residual activity: 100%
[29]
  residual activity: 81%
[30]
  residual activity: 100%
[31]
  residual activity: 89%
[32]
  residual activity: 100%
[33]
  residual activity: 81%
[34]; read-out: Ki
  Ki: 1.94 µM
[35]
  residual activity: 64%
[36]
  residual activity: 89%
[37]
  inhibition: -1.95%
[38]
  residual activity: 100%
[39]
  residual activity: 94%
[40]
  residual activity: 71%
[41]
  inhibition: 22.4%
[42]
  residual activity: 63%
[43]
  residual activity: 96%
[44]
  residual activity: 90%
[45]
  inhibition: 0.09%
[46]
  residual activity: 74%

## NS(=O)(=O)c1cc(NC(=O)Cc2ccccc2)ccc1Oc1cccc(Cl)c1 [BAY-1797]
[1]
  residual activity: 99%
[2]
  residual activity: 57%
[3]
  residual activity: 100%
[4]
  inhibition: 46.3%
[5]
  residual activity: 76%
[6]
  residual activity: 66%
[7]
  residual activity: 55%
[8]
  residual activity: 88%
[9]
  residual activity: 95%
[10]
  residual activity: 87%
[11]
  residual activity: 68%
[12]
  residual activity: 100%
[13]
  residual activity: 83%
[14]
  residual activity: 56%
[15]
  residual activity: 91%
[16]
  residual activity: 100%
[17]
  residual activity: 63%
[18]
  residual activity: 95%
[19]
  residual activity: 96%
[20]
  residual activity: 100%
[21]
  residual activity: 93%
[22]
  residual activity: 100%
[23]
  inhibition: 35.2%
[24]
  residual activity: 75%
[25]
  residual activity: 69%
[26]
  residual activity: 93%
[27]
  residual activity: 93%
[28]
  residual activity: 85%
[29]
  residual activity: 90%
[30]
  residual activity: 96%
[31]
  residual activity: 93%
[32]
  residual activity: 92%
[33]
  residual activity: 91%
[34]; read-out: Ki
  Ki: 4.34 µM
[34]; read-out: pKi (converted)
  Ki: 4.17 µM
[35]
  residual activity: 87%
[36]
  residual activity: 100%
[37]
  inhibition: 10.2%
[38]
  residual activity: 95%
[39]
  residual activity: 78%
[40]
  residual activity: 72%
[41]
  inhibition: 0.53%
[42]
  residual activity: 95%
[43]
  residual activity: 100%
[44]
  residual activity: 76%
[45]
  inhibition: -3.13%
[46]
  residual activity: 61%
